According to ChEMBL document CHEMBL1201862, “PubChem BioAssay data set” (2004):
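A five-concentration, 48-hour dose response in 96-well plates underlies each endpoint, interpolated linearly between surrounding concentrations. Abbreviation: GI50, concentration required for 50% inhibition of growth.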 Activity calls are given as the source filed them. Cut-off read from the data, not from the text of the source: active = GI50 up to about 1.1 µM and inactive = higher.

Assays:
Experiment in all cases: NCI anticancer screen, dose series, 48 h
CAKI-1 = test system: CAKI-1
HCT-116 = test system: HCT-116
HCT-15 = test system: HCT-15
HOP-62 = test system: HOP-62
HOP-92 = test system: HOP-92
HT-29 = test system: HT-29
MDA-MB-231 = test system: MDA-MB-231
MOLT-4 = test system: MOLT-4
NCI-H460 = test system: NCI-H460
OVCAR-3 = test system: OVCAR-3
OVCAR-4 = test system: OVCAR-4
OVCAR-5 = test system: OVCAR-5
OVCAR-8 = test system: OVCAR-8
PC-3 = test system: PC-3
RPMI-8226 = test system: RPMI-8226
RXF 393 = test system: RXF 393
SF-268 = test system: SF-268
SK-MEL-2 = test system: SK-MEL-2
SR = test system: SR
UO-31 = test system: UO-31

SMILES | GI50 (CAKI-1) | GI50 (HCT-116) | GI50 (HCT-15) [µM] | GI50 (HOP-62) | GI50 (HOP-92) | GI50 (HT-29) | GI50 (MDA-MB-231) | GI50 (MOLT-4) | GI50 (NCI-H460) | GI50 (OVCAR-3) | GI50 (OVCAR-4) | GI50 (OVCAR-5) | GI50 (OVCAR-8) | GI50 (PC-3) | GI50 (RPMI-8226) | GI50 (RXF 393) | GI50 (SF-268) | GI50 (SK-MEL-2) | GI50 (SR) | GI50 (UO-31)
N#CC(NCCO)=C1C(=O)c2ccccc2C1=O | > 100 µM (inactive) | > 100 µM (inactive) | > 100 | > 100 µM (inactive) | > 100 µM (inactive) | > 100 µM (inactive) | > 100 µM (inactive) | > 100 µM (inactive) | > 100 µM (inactive) | > 100 µM (inactive) | > 100 µM (inactive) | > 100 µM (inactive) | > 100 µM (inactive) | > 100 µM (inactive) | > 100 µM (inactive) | > 100 µM (inactive) | > 100 µM (inactive) | > 100 µM (inactive) | > 100 µM (inactive) | > 100 µM (inactive)
COC(=O)Cc1c([C@H]2[C@H](CC(=O)OC)c3ccccc3N2S(=O)(=O)c2ccc(C)cc2)[nH]c2ccccc12 | > 100 µM (inactive) | > 100 µM (inactive) | > 100 | > 100 µM (inactive) | > 100 µM (inactive) | > 100 µM (inactive) | > 100 µM (inactive) | 3.4 µM (inactive) | > 100 µM (inactive) | > 100 µM (inactive) | > 100 µM (inactive) | > 100 µM (inactive) | > 100 µM (inactive) | > 100 µM (inactive) | 7 µM (inactive) | > 100 µM (inactive) | > 100 µM (inactive) | > 100 µM (inactive) | 9.33 µM (inactive) | > 100 µM (inactive)
CNC1C(O)C(NC)C2OC3(O)C(=O)CC(C)OC3OC2C1O (stereo not given) | > 100 µM (inactive) | > 100 µM (inactive) | > 100 | > 100 µM (inactive) | > 100 µM (inactive) | > 100 µM (inactive) | > 100 µM (inactive) | > 100 µM (inactive) | > 100 µM (inactive) | > 100 µM (inactive) | > 100 µM (inactive) | > 100 µM (inactive) | > 100 µM (inactive) | > 100 µM (inactive) | > 100 µM (inactive) | > 100 µM (inactive) | > 100 µM (inactive) | > 100 µM (inactive) | > 100 µM (inactive) | > 100 µM (inactive)
CN1C(=O)c2ccccc2C(O)(c2ccccc2)C1(O)c1ccccc1 (stereo not given) | 43.4 µM (inactive) | 95.3 µM (inactive) | > 100 | > 100 µM (inactive) | 14.4 µM (inactive) | > 100 µM (inactive) | > 100 µM (inactive) | 48.1 µM (inactive) | 19.2 µM (inactive) | > 100 µM (inactive) | 72.8 µM (inactive) | > 100 µM (inactive) | > 100 µM (inactive) | 52.6 µM (inactive) | 56.4 µM (inactive) | 83.9 µM (inactive) | 55.5 µM (inactive) | > 100 µM (inactive) | 43 µM (inactive) | 32.5 µM (inactive)
O=C(O)C(C1NCCS1)N1C(=O)c2ccccc2C1=O (stereo not given) | > 100 µM (inactive) | > 100 µM (inactive) | > 100 | > 100 µM (inactive) | > 100 µM (inactive) | > 100 µM (inactive) | > 100 µM (inactive) | > 100 µM (inactive) | > 100 µM (inactive) | > 100 µM (inactive) | > 100 µM (inactive) | > 100 µM (inactive) | > 100 µM (inactive) | > 100 µM (inactive) | > 100 µM (inactive) | > 100 µM (inactive) | > 100 µM (inactive) | > 100 µM (inactive) | > 100 µM (inactive) | > 100 µM (inactive)
CCOc1nc(N)nc(C)c1/N=N/c1ccc(Cl)cc1 | > 100 µM (inactive) | > 100 µM (inactive) | > 100 | > 100 µM (inactive) | 13.7 µM (inactive) | > 100 µM (inactive) | > 100 µM (inactive) | 10.7 µM (inactive) | > 100 µM (inactive) | > 100 µM (inactive) | > 100 µM (inactive) | > 100 µM (inactive) | > 100 µM (inactive) | 82.8 µM (inactive) | 25.9 µM (inactive) | > 100 µM (inactive) | > 100 µM (inactive) | > 100 µM (inactive) | 1.86 µM (inactive) | 45 µM (inactive)
CCN(CC)CCn1ccc(=O)c2cc3c(=O)ccn(CCN(CC)CC)c3c(C)c21 | 7.4 µM (inactive) | 1.82 µM (inactive) | 3.38 | 7.38 µM (inactive) | 7.69 µM (inactive) | 2.81 µM (inactive) | 5.27 µM (inactive) | 0.525 µM (active) | 1.31 µM (inactive) | 8.55 µM (inactive) | 2.02 µM (inactive) | 14.1 µM (inactive) | 2.87 µM (inactive) | 4.79 µM (inactive) | 2.1 µM (inactive) | 4.56 µM (inactive) | 4.07 µM (inactive) | 11.6 µM (inactive) | 1.26 µM (inactive) | 5.07 µM (inactive)
